Results from US11198710B2, “Transgenic plant having herbicide resistance” (priority 2016, dated 2021).

Legend:
[1] = tested on: wild-type rapeseed plants (variety: Westar); experiment: Rapeseed sensitivity test 1 (post-sowing/pre-emergence soil treatment), wild type; format: in vivo, Brassica napus
Method: (§1) Wild-type rapeseed plants (variety: Westar) and transgenic rapeseed plants comprising the wheat GST gene introduced therein were subjected to Rapeseed sensitivity test 1 in plastic pots (length: 8 cm; width: 8 cm; height: 6 cm). The test was carried out in Fujino soil (sandy loam soil), and 4 seeds of wild-type rapeseed and 8 seeds of transgenic rapeseed were sown in each pot (sowing depth: 1 cm). Water dispersible granules containing 50% pyroxasulfone were applied at 5 different doses of 1, 4, 16, 63, and 250 g a.i./ha (n=3). Immediately after pyroxasulfone treatment, about 1 mm of rain was fallen with the use of artificial rainfall device, and water was supplied from the bottom of the pots. Thereafter, water was supplied from the bottom of the pot when the soil surface was dried in the pot, according to need.
(§2) The difference in the sensitivity of rapeseed to pyroxasulfone applied pre-emergence was examined (temperature: 22° C., fluorescent light), and whether or not the transgenic rapeseed plant comprising wheat GST had pyroxasulfone resistance was evaluated in terms of the plant height, the herbicidal symptoms, and the cotyledon growth. Specifically, heights of the plants were measured 2 weeks after seeds sowing of rapeseed and pyroxasulfone application, and the inhibition was assessed by comparison to control plants grown in the absence of pyroxauslfone (n=4 to 12). In FIGS. 37 to 39, “TaGST” stands for a transgenic rapeseed plant comprising the TaQ8GTC0 gene. Values in the table in FIG. 38 are expressed as the mean±standard deviation (n=4 to 12).

[2] = tested on: wild-type rapeseed plants (variety: Westar); experiment: Rapeseed sensitivity test 2 (agar medium), wild type; format: in vivo, Brassica napus; conditions: 0.1 μM pyroxasulfone, 22° C., 2 weeks
Description: In order to investigate the extent of pyroxasulfone resistance of the transgenic rapeseed plants comprising the […] gene introduced therein compared to wild-type plants, the growth of rapeseed was examined in an agar medium containing pyroxasulfone. Wild-type rapeseed plants (variety: Westar) and transgenic rapeseed plants comprising the TaQ8GTC0 gene introduced therein were subjected to the growth inhibitory test in an agar medium, so as to examine the resistance thereof to pyroxasulfone.
The medium (1 liter) used in the test was composed of 1× Murashige-Skoog (MS) media (a bag), thiamin hydrochloride (3 μg/ml), nicotinic acid (5 μg/ml), pyridoxin hydrochloride (0.5 μg/ml), and 1% (w/v) sucrose. The composition was added to a 1-liter beaker, a pH was adjusted to 5.7, and the volume of the composition was adjusted to 1 liter, followed by the addition of 8 g (0.8%) of agar. Thereafter, the composition was autoclaved, the temperature was cooled to room temperature, and pyroxasulfone (acetone solution) at a given concentration was added. […]
The sensitivity of rapeseed was examined in agar media comprising pyroxasulfone (0.1 μM, 1 μM, 10 μM, and 100 μM). […] Values in the table in FIGS. 41 and 42 are expressed as the mean±standard deviation (n=4 to 5). Values in FIG. 43 are expressed as the means (n=4 to 5).

[3] = tested on: transgenic rapeseed plants comprising the TaQ8GTC0 gene; experiment: Rapeseed sensitivity test 1 (post-sowing/pre-emergence soil treatment), transgenic; format: in vivo, Brassica napus
Method: as §1, §2

[4] = tested on: wild-type Arabidopsis thaliana plant (Columbia-0); experiment: Sensitivity of wild-type Arabidopsis thaliana to herbicides on MS agar medium; format: in vivo; conditions: 22° C., 14 days
Method: A medium was prepared as described below, so as to examine the pyroxasulfone resistance of the Arabidopsis thaliana plant comprising the TaQ8GTC0 gene introduced therein. At the outset, the Murashige-Skoog (MS) media (1 bag), thiamin hydrochloride (3 mg), nicotinic acid (5 mg), pyridoxin hydrochloride (0.5 mg), and sucrose (10 g) were added into a 1-liter beaker, a pH was adjusted to 5.7, the volume of the content was adjusted to 1 liter, and 8 g (0.8%) of agar was added. The resultant was autoclaved and cooled to room temperature, and pyroxasulfone (an acetone solution) was added thereto. A 30-ml fraction thereof was fractionated into a No. 2 square plate to prepare an MS medium containing pyroxasulfone at a given concentration.
Pyroxasulfone sensitivity of transgenic Arabidopsis thaliana plants was tested with the use of the medium prepared above as described below. A necessary amount of Arabidopsis thaliana dry seeds was agitated in 70% ethanol for 2 minutes and in hypochlorous acid containing 0.02% Triton-X-100 for 15 minutes, followed by washing with sterile water 10 times. Subsequently, the seeds were suspended in 1 ml of the autoclaved 0.1% agar solution, the suspension was thoroughly mixed to prepare a homogeneous solution, and a total of 30 seeds were each placed on the medium surface. […]

[5] = Brassica napus, 336 h, 16 g a.i./ha, 2 weeks after sowing and application, 22° C., read-out: shoot growth inhibition (plant height)

## Cn1nc(C(F)(F)F)c(CS(=O)(=O)C2=NOC(C)(C)C2)c1OC(F)F [Pyroxasulfone, 3-[5-(difluoromethoxy)-1-methyl-3-(trifluoromethyl)pyrazol-4-ylmethylsulfonyl]-4,5-dihydro-5,5-dimethyl-1,2-oxazole]
[1]; [5]
  inhibition at 16 g/ha: 61.9%
[1]; pre-emergence soil treatment
  dose at which cotyledon growth was substantially completely inhibited: ≥ 16 g a.i./ha
  dose at which cotyledons became dark green (herbicidal symptoms): ≥ 16 g a.i./ha
[2]
  inhibition ratio on foliage leaf development: 8.4±1.4%
  inhibition ratio on plant height: 8.9±2.8%
[3]; 250 g a.i./ha
  cotyledon growth: grew to a certain extent
[3]; [5]
  inhibition at 16 g/ha: 48.2%
[3]; pre-emergence soil treatment, doses up to 250 g a.i./ha
  herbicidal symptoms (cotyledons dark green): not detected
[4]
  pyroxasulfone concentration at which growth was substantially completely inhibited: ≥ 1 µM
[4]; pyroxasulfone 100 nM
  growth of the wild-type Arabidopsis thaliana plant: inhibited to some extent
